The COVID Moonshot data (paper PMC7615835)
pIC50: −log10 of the molar value. Values joined by “and” are separate entries in the source; they are usually repeats but may differ in a detail not shown here. Identical values can stand only once.

biological target: SARS-CoV-2 Main Protease (SARS-CoV-2) (UniProt P0DTD1)

Q: How did the pIC50 turn out when `O=C(Cc1cc(O)cc(Cl)c1)Nc1cncc2ccccc12` was run?
A: Its pIC50 is 5.00.

Q: With `O=C(CCl)N1CCCN(S(=O)(=O)c2c(F)cccc2F)CC1` as the compound, how does the pIC50 read?
A: The pIC50 was 4.69.

Q: With `O=C(c1cc(=O)[nH]c2ccccc12)N1CCN(c2cccc(Cl)c2)C(=O)C1` as the compound, how does the pIC50 read?
A: The pIC50 was 4.80.

Q: `CC12CC3CC(C)(C1)CC(Nc1cc(Cl)cc(CC(=O)Nc4cncc5ccccc45)c1)(C3)C2` was tested. Which pIC50 did it give?
A: Its pIC50 is 5.80.

Q: With `CNC(=O)CN1Cc2ccc(Cl)cc2[C@]2(CCN(c3cncc4c3CCCC4)C2=O)C1` (stereo in doubt) as the compound, how does the pIC50 read?
A: The pIC50 was under 4.00.

Q: With `O=C(Cc1cc(Cl)cc(Nc2c(F)cccc2Br)c1)Nc1cncc2ccccc12` as the compound, how does the pIC50 read?
A: Its pIC50 is 5.47.

Q: With `CC(C)(C)c1ccc(N(C(=O)c2ccccc2)C(C(=O)NCCc2cccc(F)c2)c2cccnc2)cc1` (stereo unspecified) as the compound, how does the pIC50 read?
A: Its pIC50 is under 4.00.

Q: How did the pIC50 turn out when `N#Cc1ncc(F)cn1` was run?
A: The pIC50 was under 4.00.

Q: With `Cc1cc(C(F)(F)F)nc2c1c(N)nn2C(=O)Cc1cccc(Cl)c1` as the compound, how does the pIC50 read?
A: The pIC50 was under 4.00.

Q: With `O=C(Cc1cc(Cl)cc(N2CCC(Oc3ccccc3)CC2)c1)Nc1cncc2ccccc12` as the compound, how does the pIC50 read?
A: The pIC50 was 5.76.

Q: With `O=C(Cc1cc(Cl)cc(OC(F)(F)F)c1)Nc1cncc2ccccc12` as the compound, how does the pIC50 read?
A: The pIC50 was 5.81.

Q: How did the pIC50 turn out when `COc1ccc2cncc(N3CCC4(CN(S(=O)(=O)CC5(C#N)CC5)Cc5ccc(Cl)cc54)C3=O)c2c1` (stereo unspecified) was run?
A: Its pIC50 is 6.67.

Q: With `O=C(NCCc1cccc(F)c1)C(c1cccnc1)N(C(=O)c1cocn1)c1cnn(-c2ccccc2)c1` (stereo unspecified) as the compound, how does the pIC50 read?
A: The pIC50 was 5.53.

Q: With `N#CC1CN(S(=O)(=O)N2Cc3ccc(Cl)cc3C3(CCN(c4cncc5ccccc45)C3=O)C2)C1` (stereo unspecified) as the compound, how does the pIC50 read?
A: The pIC50 was 6.74.

Q: `NC(=O)CN1CCCN(C(=O)CCSc2ccc(F)cc2)CC1` was tested. Which pIC50 did it give?
A: The pIC50 was under 4.00.

Q: `Cn1cc(-c2cc(C(=O)N(c3ccc(C(C)(C)C)cc3)C(C(=O)NCCc3cccc(F)c3)c3cccnc3)on2)cn1` (stereo unspecified) was tested. Which pIC50 did it give?
A: The pIC50 was under 4.00.

Q: `CC1(CS(=O)(=O)N2Cc3ccc(Cl)cc3C(C(=O)Nc3cncc4cccc(Cl)c34)C2)CS(=O)(=O)C1` (stereo unspecified) was tested. Which pIC50 did it give?
A: Its pIC50 is 6.02.

Q: `N#Cc1c(Cl)cccc1Nc1cc(Cl)cc(CC(=O)Nc2cncc3ccccc23)c1` was tested. Which pIC50 did it give?
A: The pIC50 was 5.71.

Q: `CCCOc1c(Cl)cc(C(=O)N2CCC(C3CCNC3)CC2)cc1OCC` (stereo unspecified) was tested. Which pIC50 did it give?
A: The pIC50 was under 4.00.

Q: With `Nc1nn(C(=O)Cc2cccc(Cl)c2)c2cccc(F)c12` as the compound, how does the pIC50 read?
A: Its pIC50 is under 4.00.

Q: `CCOC(=O)c1c(C)n(S(C)(=O)=O)c2ccc(N(C(=O)c3ccco3)S(C)(=O)=O)cc12` was tested. Which pIC50 did it give?
A: The pIC50 was 6.55.

Q: `O=C(Cc1cccc(Cl)c1)N1CC(O)Cc2ccccc21` (stereo unspecified) was tested. Which pIC50 did it give?
A: The pIC50 was under 4.00.

Q: `O=C(Cc1cccc(Cl)c1)Nc1ncn2ccccc12` was tested. Which pIC50 did it give?
A: The pIC50 was under 4.00.

Q: `O=C(Cc1cc(Cl)cc(N2CCC(Cc3ccccc3)CC2)c1)Nc1cncc2ccccc12` was tested. Which pIC50 did it give?
A: Its pIC50 is 5.47.

Q: `CC(C)S(=O)(=O)Nc1ccc2c(NC(=O)C3CN(S(=O)(=O)CC4(C#N)CC4)Cc4ccc(Cl)cc43)cncc2c1` (stereo unspecified) was tested. Which pIC50 did it give?
A: Its pIC50 is 7.05.

Q: With `CC(C)S(=O)(=O)c1ccc(N(C(=O)c2cnc[nH]2)C(C(=O)NCCc2cccc(F)c2)c2cccnc2)cc1` (stereo unspecified) as the compound, how does the pIC50 read?
A: The pIC50 was under 4.00.

Q: How did the pIC50 turn out when `O=C(C[C@@]1(C(=O)Nc2cncc3ccccc23)CCOc2ccc(Cl)cc21)N1CCN(C2CCOC2)CC1` (stereo in doubt) was run?
A: The pIC50 was 4.33.

Q: With `Cc1cc(C)c(C#N)c(Sc2ncnc3c2nnn3Cc2ccccc2)n1` as the compound, how does the pIC50 read?
A: The pIC50 was 6.19.

Q: `CN(C)S(=O)(=O)N1CCN(C(=O)C2Nc3ccccc3S(=O)(=O)N2)CC1` (stereo unspecified) was tested. Which pIC50 did it give?
A: Its pIC50 is under 4.00.

Q: `CN(Cc1ccccc1Br)c1cc(Cl)cc(CC(=O)Nc2cncc3ccccc23)c1` was tested. Which pIC50 did it give?
A: The pIC50 was 5.68.

Q: How did the pIC50 turn out when `COc1ccc(N2CCN(C(=O)c3cc(=O)[nH]c4ccccc34)CC2)cc1` was run?
A: Its pIC50 is 4.83.

Q: With `Cc1ccc(S(=O)(=O)N2CCN(C(=O)c3cc(=O)[nH]c4cc(F)ccc34)CC2)c(C)c1` as the compound, how does the pIC50 read?
A: The pIC50 was under 4.00.

Q: `C[C@H](Nc1cc(Cl)cc(CC(=O)Nc2cncc3ccccc23)c1)c1ccc([N+](=O)[O-])cc1` (stereo in doubt) was tested. Which pIC50 did it give?
A: The pIC50 was 5.84.

Q: `O=C(Nc1cccnc1)c1cc(Cl)ccc1-c1ccccc1` was tested. Which pIC50 did it give?
A: The pIC50 was 4.41.

Q: `Cc1[nH]ncc1CC(=O)Nc1cccc(Cl)c1` was tested. Which pIC50 did it give?
A: The pIC50 was 4.26.

Q: How did the pIC50 turn out when `COC(=O)/C=C/C(=O)N(C(=O)[C@H]1CCOc2ccc(Cl)cc21)c1cncc2ccccc12` (stereo in doubt) was run?
A: Its pIC50 is 5.36.

Q: How did the pIC50 turn out when `O=C(Nc1ccc2nncn2c1)c1ccc2scnc2c1` was run?
A: Its pIC50 is under 4.00.

Q: With `O=C(NCCc1cccc(F)c1)C(c1cccnc1)N(C(=O)c1cocn1)c1ccc2ncsc2c1` (stereo unspecified) as the compound, how does the pIC50 read?
A: The pIC50 was 4.22.

Q: `Cc1noc2ncc(CNc3ccc(-c4nnnn4C)cc3)cc12` was tested. Which pIC50 did it give?
A: Its pIC50 is under 4.00.

Q: With `O=C(CCl)N1CCN(C(c2ccccc2)C2CCOCC2)CC1` (stereo unspecified) as the compound, how does the pIC50 read?
A: Its pIC50 is 4.55 and 4.82.

Q: With `O=C(Cc1cc(Cl)cc(Nc2ccc([N+](=O)[O-])c3ccccc23)c1)Nc1cncc2ccccc12` as the compound, how does the pIC50 read?
A: Its pIC50 is 5.67.

Q: How did the pIC50 turn out when `CCC(=O)Nc1ccc(N(C)C(=O)Cn2nnc3ccccc32)cc1` was run?
A: Its pIC50 is under 4.00.

Q: How did the pIC50 turn out when `C=CC(=O)NCC(=O)N(Cc1ccccc1O)C[C@@H]1CCCO1` (stereo in doubt) was run?
A: Its pIC50 is under 4.00.

Q: How did the pIC50 turn out when `O=C(Cc1ccc(Cl)c(Cl)c1)Nc1cncc2ccccc12` was run?
A: The pIC50 was 6.75 and 6.42.

Q: `O=C(Cc1cccc(Cl)c1)NC1CCCNC1=O` (stereo unspecified) was tested. Which pIC50 did it give?
A: Its pIC50 is under 4.00.

Q: `O=C(/C=C/c1ccccc1)N1CCN(S(=O)(=O)c2cccc(F)c2)CC1` was tested. Which pIC50 did it give?
A: The pIC50 was under 4.00.

Q: With `O=C(NCCc1cccc(F)c1)C(c1cccnc1)N(C(=O)c1cnc[nH]1)c1ccc2ncsc2c1` (stereo unspecified) as the compound, how does the pIC50 read?
A: The pIC50 was under 4.00.

Q: `CC1(C(=O)Nc2cncc3ccccc23)CN(CC2CC2)S(=O)(=O)c2ccc(Cl)cc21` (stereo unspecified) was tested. Which pIC50 did it give?
A: The pIC50 was 6.20.

Q: `COc1ccccc1CC(=O)Nc1cncc2ccccc12` was tested. Which pIC50 did it give?
A: Its pIC50 is 4.46.

Q: How did the pIC50 turn out when `CN(C)C(=O)c1ccc2c(NC(=O)Cc3cccc(Cl)c3)cncc2c1` was run?
A: The pIC50 was 5.61.

Q: How did the pIC50 turn out when `CC(C(=O)Nc1cccc2nccnc12)n1cnc2c(N)ncnc21` (stereo unspecified) was run?
A: Its pIC50 is under 4.00.
